Results taken from paper PMC5665883, “Antithrombotic properties of JJ1, a potent and novel thrombin inhibitor” (Scientific Reports, 2017).
pKi: −log10 of the molar value. Marks after values point to notes of the source that are not given here.

Legend:
Factor Xa = molecular target: T1, Factor Xa (Homo sapiens, UniProt P00742); experiment: Chromogenic substrate assay, Ki (Dixon); format: biochemical
T1 construct: thrombin versus trypsin, factor Xa, elastase, plasmin, protein Ca, streptokinase, tPA, and urokinase; purchased Haematologic Technologies (Essex Junction, VT)
T1 sequence (P00742 235-488 limits assumed): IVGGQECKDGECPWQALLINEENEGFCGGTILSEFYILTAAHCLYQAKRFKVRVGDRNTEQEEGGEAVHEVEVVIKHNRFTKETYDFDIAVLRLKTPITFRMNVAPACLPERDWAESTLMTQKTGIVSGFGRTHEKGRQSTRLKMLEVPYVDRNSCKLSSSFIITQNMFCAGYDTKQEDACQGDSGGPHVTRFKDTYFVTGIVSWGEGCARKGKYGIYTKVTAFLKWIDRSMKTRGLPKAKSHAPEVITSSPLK
T1 sequence (P00742 41-179 limits assumed): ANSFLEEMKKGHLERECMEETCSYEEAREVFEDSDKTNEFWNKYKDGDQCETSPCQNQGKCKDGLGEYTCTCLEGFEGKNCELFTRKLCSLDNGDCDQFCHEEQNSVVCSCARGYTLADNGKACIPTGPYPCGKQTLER

[1] = system: thrombin-catalyzed fibrin polymerization in human plasma; experiment: Thrombin-catalyzed fibrin polymerization; format: biochemical; conditions: absorbance at 360 nm
Protocol: Thrombin-catalyzed polymerization was determined every 6 s for 20 min by monitoring the turbidity of the solution at 360 nm at ambient temperature by using a spectrophotometer (TECAN, Männedorf, Switzerland). Control plasma and plasma incubated with JJ1 were diluted three-fold in […] and clotted with thrombin (final concentration: 0.5 U/mL). The maximum polymerization rate (Vmax, ΔmOD/min) from each absorbance curve was recorded.

Ex vivo PT clotting time = format: in vivo, C57BL/6 mice; conditions: mice, i.v.; for PT: 1 h after administration
Protocol: (§1) The aPTT and PT were determined using a Thrombotimer (Behnk Elektronik, Norderstedt, Germany) in accordance with the manufacturer’s instructions and as previously described. Briefly, citrated normal human plasma (90 μL) was mixed with 10 μL JJ1 and incubated for 1 min at 37 °C. Subsequently, the aPTT assay reagent (100 μL) was added, the plasma sample was incubated for an additional 1 min at 37 °C, 20 mM CaCl2 (100 μL) was added, and the clotting times were recorded. For the PT assays, citrated normal human plasma (90 μL) was mixed with 10 μL JJ1 stock solution and was incubated for 1 min at 37 °C. The PT assay reagent (200 μL), which had been pre-incubated for 10 min at 37 °C, was subsequently added and the clotting time was recorded. The PT results were expressed in seconds and as International Normalized Ratios (INR): INR = (PT sample/PT control)^ISI, where ISI = international sensitivity index. The aPTT results were also expressed in seconds. All experimental protocols (KNUH 2012-01-010) were approved by the Institutional Review Board of Kyungpook National University Hospitals (Daegu, Republic of Korea).
Male C57BL/6 mice were fasted overnight. Each compound was dissolved in 0.5% DMSO and administered by i.v. injection. One hour after administration, arterial blood samples (0.1 mL) were collected in 3.8% sodium citrate (1:10, v/v) for the ex vivo aPTT and PT determination. The clotting times were determined as described above.

Streptokinase = Streptokinase (Homo sapiens, UniProt P00747); experiment: Chromogenic substrate assay, Ki (Dixon); format: biochemical
Chain of Streptokinase (P00747 581-810 limits assumed): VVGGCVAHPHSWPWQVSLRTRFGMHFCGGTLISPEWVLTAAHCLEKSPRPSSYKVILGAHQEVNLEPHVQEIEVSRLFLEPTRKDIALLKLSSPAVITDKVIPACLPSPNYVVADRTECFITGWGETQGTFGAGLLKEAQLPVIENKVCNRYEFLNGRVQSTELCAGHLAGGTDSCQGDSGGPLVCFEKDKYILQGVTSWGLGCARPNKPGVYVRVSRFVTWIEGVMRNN

[2] = Acute pulmonary thrombosis induced by collagen and epinephrine; format: in vivo, C57BL/6 mice; conditions: mice, i.v. 1 h before collagen (500 μg/kg) plus epinephrine (50 μg/kg)
Protocol: Male C57BL/6 mice were fasted overnight and divided into groups of 10 animals. JJ1 suspended in DMSO was administered to mice intravenously. After 1 h, a mixture of collagen (500 μg/kg) plus epinephrine (50 μg/kg) was injected into the tail vein of mice to induce acute thrombosis 1 h later. Each mouse was carefully examined for 15 min to determine whether the mouse was paralyzed, dead, or had recovered from the acute thrombotic challenge. Five separate experiments were performed and the results were subjected to statistical analysis.

Factor IXa = molecular target: T2, Factor IXa (Homo sapiens, UniProt P00740); experiment: Chromogenic substrate assay, Ki (Dixon); format: biochemical
T2 construct: Factor IXa
T2 sequence (P00740 227-461 limits assumed): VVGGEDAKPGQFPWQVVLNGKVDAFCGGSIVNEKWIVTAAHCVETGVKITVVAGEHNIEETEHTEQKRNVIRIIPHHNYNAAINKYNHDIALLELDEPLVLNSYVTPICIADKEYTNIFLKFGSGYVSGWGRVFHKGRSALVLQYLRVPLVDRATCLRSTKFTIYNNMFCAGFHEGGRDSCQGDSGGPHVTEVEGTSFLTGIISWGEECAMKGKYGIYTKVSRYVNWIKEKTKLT
T2 sequence (P00740 47-191 limits assumed): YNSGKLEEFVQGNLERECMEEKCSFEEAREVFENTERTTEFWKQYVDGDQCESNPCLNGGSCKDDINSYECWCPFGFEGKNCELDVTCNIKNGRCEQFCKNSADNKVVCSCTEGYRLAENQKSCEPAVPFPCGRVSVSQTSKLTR
Protocol: (§2) Chromogenic substrate assays were performed using a Labsystems IEMS (Cergy Pontoise, France) microtiter plate reader. K i values were calculated according to the method of Dixon[65]. In each assay, the compound was tested at a minimum of seven concentrations, in duplicate, to obtain an inhibition curve. The following general procedures were adopted for each assay. In a 96-well microtiter plate, 25 μL of inhibitor solution or buffer was added to 50 μL of substrate. The enzyme solution (25 μL) was added just before the plate was placed in the microtiter plate reader for 1 h at 37 °C. The hydrolysis of the substrate yields p-nitroaniline, which was continuously monitored spectrophotometrically at 405 nm. The maximal initial reaction rates were calculated and expressed as millioptical density per minute.

Factor XIa = molecular target: T3, Factor XIa (Homo sapiens, UniProt P03951); experiment: Chromogenic substrate assay, Ki (Dixon); format: biochemical
T3 construct: Factor XIa
T3 sequence (P03951 388-625 limits assumed): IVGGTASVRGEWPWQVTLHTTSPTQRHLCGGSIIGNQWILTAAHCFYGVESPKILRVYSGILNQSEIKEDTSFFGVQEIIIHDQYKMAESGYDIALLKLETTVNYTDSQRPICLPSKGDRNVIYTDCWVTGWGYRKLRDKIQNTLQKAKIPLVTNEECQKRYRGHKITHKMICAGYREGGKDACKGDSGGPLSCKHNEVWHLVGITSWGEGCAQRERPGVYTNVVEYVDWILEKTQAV
T3 sequence (P03951 19-387 limits assumed): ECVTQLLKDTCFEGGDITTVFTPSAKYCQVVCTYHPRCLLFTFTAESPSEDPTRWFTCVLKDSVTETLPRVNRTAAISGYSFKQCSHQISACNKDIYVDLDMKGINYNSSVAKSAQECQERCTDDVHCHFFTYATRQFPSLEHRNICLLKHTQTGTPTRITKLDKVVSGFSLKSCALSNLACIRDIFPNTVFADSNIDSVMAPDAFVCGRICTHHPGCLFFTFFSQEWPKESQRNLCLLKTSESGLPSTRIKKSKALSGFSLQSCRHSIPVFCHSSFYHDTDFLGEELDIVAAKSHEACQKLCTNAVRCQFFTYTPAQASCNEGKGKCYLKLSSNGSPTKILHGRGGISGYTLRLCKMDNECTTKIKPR
Protocol: as §2

human plasma = experiment: In vitro aPTT clotting time; format: biochemical; conditions: for aPTT: in vitro
Protocol: as §1

human platelets = experiment: In vitro thrombin-induced platelet aggregation; format: cell-based; conditions: washed human platelets
Protocol: The in vitro platelet aggregation study was performed according to a previously reported method[59],[62]. Washed human platelets were incubated with the indicated concentration of JJ1 in DMSO for 1, 3, 5, or 10 min and subsequently stimulated by thrombin in 0.9% saline solution at 37 °C for 5 min. Platelet aggregation was recorded using an aggregometer (Chronolog, Havertown, PA, USA). For the ex vivo aggregation assay, male mice were fasted overnight and the indicated concentration of JJ1 in DMSO was administered by i.v. injection. After 24 h, PRP (10^9 platelets/mL) in a total volume of 240 μL was incubated at 37 °C for 1.5 min in the aggregometer with continuous stirring at 1000 rpm and subsequently stimulated with thrombin. Platelet aggregation was recorded as described above.

For `c1ccc2c(NC3CCCC3)nc(Nc3ccncc3)nc2c1` [JJ1], the pKi (Factor Xa; Factor Xa) was less than 3.60, the Selectivity ratio (Factor Xa; K i Factor Xa/K i α-thrombin) was >10,000 and the “Maximal rate of fibrin polymerization” value [1] was “significantly decreased the maximal rate of fibrin polymerization”. For the same compound, the “PT (INR)” value (Ex vivo PT clotting time; 0.31 μg/mouse) was 1.08 INR, the PT (Ex vivo PT clotting time; 0.31 μg/mouse) was 12.4 ± 0.5 s and the “PT (INR)” value (Ex vivo PT clotting time; 0.61 μg/mouse) was 2.37 INR. For the same compound, the PT (Ex vivo PT clotting time; 0.61 μg/mouse) was 17.2 ± 1.4 s, the “PT (INR)” value (Ex vivo PT clotting time; 1.23 μg/mouse) was 4.42* INR and the PT (Ex vivo PT clotting time; 1.23 μg/mouse) was 22.3 ± 0.6 s. For the same compound, the “PT (INR)” value (Ex vivo PT clotting time; 3.06 μg/mouse) was 6.88* INR, the PT (Ex vivo PT clotting time; 3.06 μg/mouse) was 26.8 ± 0.4 s and the Selectivity ratio (Streptokinase; K i Streptokinase/K i α-thrombin) was >10,000. For the same compound, the pKi (Streptokinase; Streptokinase) was less than 3.60, the Mortality [2] was “decreased significantly” and the pKi (Factor IXa; Factor IXa) was less than 3.60. The Selectivity ratio (Factor IXa; K i Factor IXa/K i α-thrombin) was >10,000, the pKi (Factor XIa; Factor XIa) was less than 3.60 and the Selectivity ratio (Factor XIa; K i Factor XIa/K i α-thrombin) was >10,000. For the same compound, the “Concentration that doubled the clotting time, aPTT assay” value (human plasma) was 1.66 µM, the aPTT (human plasma; 0.05 μM) was 23.5 ± 0.4 s and the aPTT (human plasma; 0.1 μM) was 23.3 ± 0.2 s. It also gave an aPTT (human plasma; 0.2 μM) of 24.2 ± 0.4 s, an aPTT (human plasma; 0.5 μM) of 32.4 ± 0.6 s and an aPTT (human plasma; 1.0 μM) of 41.3 ± 0.4 s. The aPTT (human plasma; 2.0 μM) was 50.4 ± 0.6 s, the aPTT (human plasma; 5.0 μM) was 51.6 ± 0.4 s and the “Human platelet aggregation induced by thrombin” value (human platelets) was “significantly inhibited human platelet aggregation induced by thrombin in a concentration-dependent manner”.
